Measurements as given in patent US11696903B2, “Compounds and methods for scavenging dicarbonyl electrophiles” (VANDERBILT UNIVERSITY, priority 2019, dated 2023).

How the values were obtained:
COX-2 activity = test: PGE2 production in A549 cell media (GC/MS) as measure of COX-2 activity; type: cell-based, human
Protocol: (A). Scavengers were screened in RAW264.7 cells for the ability to decrease LG adduct formation on histones. Scavengers used were glucosamine (GA), 3-methoxysalicylamine (3-MoSA), pentylpyridoxamine (PPM), and 5-ethylsalicylamine (EtSA). Cells were stimulated to express COX-2, pretreated 45 min. with 500 μM scavenger or vehicle (H2O), and given 20 μM AA for 1 h before lysing and extracting histones. Histone proteins were analyzed by LC/ESI/MS/MS for LG-lysyl lactam adduct, n=2. (B) Stimulated A549 cells were pretreated with 30, 300, or 1000 μM EtSA prior to 1 h with 20 μM AA, and histones analyzed for LG-lysyl adduct. *, p<0.05 by one-way ANOVA followed by Dunnett's multiple comparisons post-test (n=3-5). (C). A549 cells were stimulated, pretreated 45 min. with 1000 μM EtSA or H2O vehicle, and given 20 μM AA for 1 h. Media was analyzed by GC/MS for PGE2 (n=3). There was no effect on PGE2 production at lower doses of EtSA (data not shown).
To stimulate COX-2 expression, A549 or RAW264.7 cells were treated overnight with 5 ng/mL IL-1B (A549) or 10 μg/mL LPS and 10 U/mL IFNγ (RAW264.7) in serum-free medium. When indicated, cells were pretreated with indomethacin, aldehyde scavengers (glucosamine, 3-MoSA, PPM or EtSA), or vehicle (ethanol for indomethacin, H2O for scavengers) for 45 min, and then given 20 μM arachidonic acid (AA) or DMSO vehicle for 1 h before lysing. […]

LG-protein adducts = test: IHC for LG-protein adducts in colons of AOM-DSS mice; type: in vivo, C57BL/6 mice; settings: 1.5 mg/ml EtHOBA
From the text: The present inventors performed immunohistochemistry (IHC) staining using the single chain antibody (Ab) D11, which specifically binds to L G-protein adducts, and a tissue microarray (TMA) from VUMC that contains colon tissues from patients with ulcerative colitis (UC), and associated precancerous and cancerous lesions. Histopathologic diagnoses were established from clinical case material from surgical resections and confirmed by H&E staining of the TMA. High levels of L G-protein adducts were present in active colitis, dysplasia, and carcinoma compared to normal patients (FIG. 2). On the TMA, 7/9 (78%) high grade dysplasia (HGD) cores and 21/23 (91%) CAC cores were scored positive for L G adducts.
Animals receive an i.p. injection of the carcinogen AOM (12.5 mg/kg) followed by 3 cycles of 4% DSS, each for 4 days, over a total of 56-77 days. To directly determine the role of electrophiles in colon carcinogenesis, the present inventors tested the effect of EtHOBA in C57BL/6 mice in the AOM-DSS model. Mice were given 1.5 mg/ml EtHOBA one day after AOM and continued throughout the experiments, except during the DSS cycles, to avoid mixing. The present inventors assessed electrophiles in colons of mice treated with AOM-DSS, by IHC for electrophile protein adducts. […]

lysyl-LG adducts = test: Lysyl-LG adducts in gastric tissues of H. pylori-infected mice (LC/ESI/MS/MS); type: in vivo; settings: EtSA 0.75% in water from one wk post-infection, 8 wk infection
Protocol: FIGS. 15A, 15B, and 15C are graphs showing C57BL/6 (A) or INS-GAS mice (B) were infected for 8 weeks with H. pylori PMSS1. Lysyl-LG adducts were measured in the gastric tissues by LC/ESI/MS/MS. *P<0.05. (C) Lysyl-LG adducts concentration was determined in AGS cells infected (plain bars) or not (open bars) with H. pylori PMSS1 for 24 h, in the presence or absence of EtSA. *P<0.05 vs. uninfected cells. § P<0.05 vs. infected cells without EtSA.
FIG. 17 is a graph showing reduction in the concentration of lysyl-levuglandin adducts in the stomachs of H. pylori infected mice treated with 2-hydroxybenzylamine for 8 weeks.
As discussed further in the Examples, the human gastric epithelial cell line AGS was infected with Hp PMSS1±10 mM EtSA. FVB/N insulin-gastrin (INS-GAS) mice and Mongolian gerbils were infected for 8 wk with Hp PMSS1 and 7.13, respectively; EtSA (0.75% in water) was given to animals beginning one wk post-infection. Lys-LG adducts, a marker of electrophile reactions, and EtSA were quantified by LC/EST/MS/MS. Histology was analyzed on H&E staining. DNA damage was evaluated by pH2AX staining. Hp colonization was quantified by culture. Mucosal immune responses were determined by RNA profiling and by Luminex assay. Mice were imaged using PET/CT with ^18F-FDG (inflammation marker) and ^18F—NaF (tumor marker). […]

[1] = Tolerability of EtHOBA in control mice (body weight, organs); type: in vivo
Protocol: FIGS. 3A and 3B show data from C57BL/6 mice were treated or not with various concentrations of EtHOBA. (A) Body weight was assessed every day. (B) After 6 days, mice were euthanized and EtHOBA was measured in the colon. n=5 mice/group.
The present inventors analyzed the effect of various concentrations of EtHOBA and its bioavailability in control mice. […] After 6 days of treatment, EtHOBA concentrations in the colon were analyzed using liquid chromatography electrospray ionization tandem mass spectrometry (LC/EST/MS/MS).

CCc1ccc(O)c(CN)c1 [EtHOBA, 5-ethyl-2-hydroxybenzylamine]
PGE2 production (COX-2 activity; A549, highest concentration tested (1000 μM EtSA)): without affecting | PGE2 production (COX-2 activity; A549, lower doses of EtSA (data not shown)): no effect | LG-protein adducts (IHC staining) (LG-protein adducts): marked attenuation | Lys-LG adducts in infected mice (lysyl-LG adducts): completely inhibited | Body weight ([1]; 3.7 mg/ml EtHOBA, control mice, 6 days): lost weight on day 1, but did not lose additional weight and did not die | Body weight ([1]; 0.37-1.5 mg/ml EtHOBA, compared to untreated mice): no loss of body weight | colon weight/length ([1]; 1.5 or 3.7 mg/ml EtHOBA): no change in colon weight/length | macroscopic evidence of organ damage ([1]; 1.5 or 3.7 mg/ml EtHOBA): no macroscopic evidence of organ damage
